# Test results: paper PMC6006285, “Specific stereochemistry of OP-1074 disrupts estrogen receptor alpha helix 12 and confers pure antiestrogenic activity” (Nature Communications, 2018)
# Where two headings read alike, the source gives them in different places.
# Key:
# MCF-7 cells = assay: Inhibition of E2-stimulated proliferation of MCF-7 cells; format: cell-based; conditions: Homo sapiens
# [1] = Pharmacokinetics in mouse plasma at conclusion of xenograft study; format: in vivo
# [2] = target: T1, glucocorticoid receptor (GR) (Homo sapiens, UniProt P04150); assay: PRE3X-TATA-Luc reporter in HeLa cells transfected with GR; format: cell-based; conditions: alone or + 32 nM Dex, 22 h
# T1 construct: HeLa cells were transfected as above but also with plasmids for full length wild; expressed in transfected cells; host or cells: HeLa
# T1 sequence (P04150 1-777): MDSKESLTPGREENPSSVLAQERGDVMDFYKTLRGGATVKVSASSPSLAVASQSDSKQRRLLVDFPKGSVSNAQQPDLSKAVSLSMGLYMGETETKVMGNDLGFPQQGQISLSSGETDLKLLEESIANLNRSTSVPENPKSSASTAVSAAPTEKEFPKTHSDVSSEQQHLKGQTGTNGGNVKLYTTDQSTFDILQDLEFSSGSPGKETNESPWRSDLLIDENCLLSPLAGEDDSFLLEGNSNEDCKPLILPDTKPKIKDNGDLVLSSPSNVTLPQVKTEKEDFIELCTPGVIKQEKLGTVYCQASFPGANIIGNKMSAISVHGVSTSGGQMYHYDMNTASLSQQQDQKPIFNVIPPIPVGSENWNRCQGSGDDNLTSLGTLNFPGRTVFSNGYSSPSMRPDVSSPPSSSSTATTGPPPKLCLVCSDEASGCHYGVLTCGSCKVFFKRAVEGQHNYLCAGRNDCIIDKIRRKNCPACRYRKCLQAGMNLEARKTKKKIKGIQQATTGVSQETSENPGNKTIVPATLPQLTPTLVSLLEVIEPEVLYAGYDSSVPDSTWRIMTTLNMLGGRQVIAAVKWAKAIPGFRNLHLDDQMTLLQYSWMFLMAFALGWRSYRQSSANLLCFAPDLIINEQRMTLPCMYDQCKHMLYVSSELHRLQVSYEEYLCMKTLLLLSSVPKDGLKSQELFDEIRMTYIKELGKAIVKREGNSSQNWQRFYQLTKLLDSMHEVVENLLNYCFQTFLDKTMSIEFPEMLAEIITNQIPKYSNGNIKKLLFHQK
# Method: (§1) representative experiment. […]
# (§2) receptor (AR, (B)), glucocorticoid receptor (GR, (C)), and the B-isoform of the progesterone receptor (PR-B, (D)). HeLa cells were transfected with the designated wild type receptor along with reporter gene PRE3X-TATA-Luc, which is promiscuously activated with known agonists specific for each receptor: R1881 for AR, dexamethasone (Dex) for GR, and medroxyprogesterone acetate (MPA) for PR-B. Each receptor was also dosed with one concentration of known antagonist for each receptor: 32 nM bicalutamide for AR, and 500 nM RU486 for GR and PR. Transfected cells were treated with the designated ligands for 22 hours and luciferase activity assayed. Shown are representative experiments, independently performed at least 3 times. Note that curves for agonists for each receptor were performed in separate experiments. Shown are means with SEM, normalized to percent of 32 nM R1881 for AR, 32 nM Dex for GR, and 0.5 µM MPA for PR-B (except with MPA alone, which was normalized to […]
# (§3) either ERα or ERβ, and 85 ng ERE-3x-Luc, containing 3 copies of estrogen-response element (ERE) cloned into pGL4.23 luciferase reporter gene containing a minimal TATA promoter […]
# (§4) hours (1.25% total final charcoal dextran stripped FBS). Bright Glo luciferase reagent (Promega) […]
# [3] = test system: uterus of ovariectomized BALB/c mice; assay: Uterine wet weight (uterotrophic assay) in ovariectomized BALB/c mice; format: in vivo, mouse; conditions: 100 mg/kg oral gavage daily for 3 days
# Description: Shown is a representative figure analyzed and presented as above.
# To confirm that OP-1074 lacks agonist activity in the uterus, we tested it in ovariectomized BALB/c mice in a uterotrophic assay. […] Thus, OP-1074 is a pure antiestrogen in the mouse uterus.
# Animals were euthanized and uteri dissected and weighed.
# androgen receptor (AR) = target: T2, androgen receptor (AR) (Homo sapiens, UniProt P10275); assay: PRE3X-TATA-Luc reporter in HeLa cells transfected with AR; format: cell-based; conditions: alone or + 32 nM R1881, 22 h
# T2 construct: HeLa cells were transfected as above but also with plasmids for full length wild; expressed in transfected cells; host or cells: HeLa
# T2 sequence (P10275 1-920): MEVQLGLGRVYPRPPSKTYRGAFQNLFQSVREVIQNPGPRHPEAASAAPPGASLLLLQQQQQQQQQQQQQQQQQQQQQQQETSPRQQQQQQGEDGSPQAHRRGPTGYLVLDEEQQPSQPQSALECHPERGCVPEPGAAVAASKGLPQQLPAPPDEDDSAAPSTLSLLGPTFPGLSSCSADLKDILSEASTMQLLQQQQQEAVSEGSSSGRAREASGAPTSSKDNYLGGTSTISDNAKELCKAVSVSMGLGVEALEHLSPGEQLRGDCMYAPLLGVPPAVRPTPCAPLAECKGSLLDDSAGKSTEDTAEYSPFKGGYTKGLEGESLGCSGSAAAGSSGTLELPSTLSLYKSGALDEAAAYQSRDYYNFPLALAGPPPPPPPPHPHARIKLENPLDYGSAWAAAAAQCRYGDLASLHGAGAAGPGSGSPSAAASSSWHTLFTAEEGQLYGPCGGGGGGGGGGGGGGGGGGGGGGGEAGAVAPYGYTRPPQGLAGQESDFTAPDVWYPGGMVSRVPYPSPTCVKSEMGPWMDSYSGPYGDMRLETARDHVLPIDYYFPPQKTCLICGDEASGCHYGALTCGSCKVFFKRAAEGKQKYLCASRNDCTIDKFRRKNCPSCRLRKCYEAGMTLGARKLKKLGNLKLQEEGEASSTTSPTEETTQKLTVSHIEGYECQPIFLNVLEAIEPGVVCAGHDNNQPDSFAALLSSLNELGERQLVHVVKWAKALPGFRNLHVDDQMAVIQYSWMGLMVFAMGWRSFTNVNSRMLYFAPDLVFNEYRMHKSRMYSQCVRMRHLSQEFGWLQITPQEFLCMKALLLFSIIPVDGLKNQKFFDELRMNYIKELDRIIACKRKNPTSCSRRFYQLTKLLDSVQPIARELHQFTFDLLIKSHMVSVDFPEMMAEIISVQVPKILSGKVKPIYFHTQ
# Method: as §1, §2, §3, §4
# [4] = female, athymic nude, mouse plasma, final dose, 100 mg/kg oral gavage twice daily
structure (smiles),measurement,setting,value
CC1=C(c2ccc(O)cc2)[C@H](c2ccc(OCCN3CC[C@@H](C)C3)cc2)Oc2cc(O)ccc21 [OP-1074],IC50,"MCF-7 cells; MCF7, 168 h, read-out: MCF-7 IC50 proliferation (Fig. 3b)",9.2 nM
same,IC50,"MCF-7 cells; MCF7, read-out: IC50 proliferation",7.2 ± 0.9 nM
same,Cmax,"[1]; female, athymic nude, oral, 100 mg/kg, mouse plasma, final dose, over a 24-h period, read-out: Cmax (Fig. 7c)",1280 ng/mL
same,AUC,[1]; [4],8200 ng·h/mL
same,Tmax,[1]; [4],1.5 h
same,half-life,[1]; [4],3.01 h
same,Cmax,"[1]; female, athymic nude, mouse plasma, final dose, 100 mg/kg oral gavage twice daily, read-out: Cmax",1300 ng/mL
same,Oral bioavailability,"[1]; mouse, 100 mg/kg oral gavage twice daily",good oral bioavailability
same,Agonist and antagonist activity on GR,[2],lacks agonist and antagonist activity
same,"Uterine wet weight, agonist mode","[3]; absence of E2, OP-1074 as mixture of active and inactive diastereomers",did not increase uterine wet weight
same,"Uterine wet weight, antagonist mode",[3]; co-treated with E2 subcutaneously,not significantly different from fulvestrant
same,Agonist and antagonist activity on AR,androgen receptor (AR),lacks agonist and antagonist activity
